Data from PMC4128677, “Somatostatin Analogues for Receptor Targeted Photodynamic Therapy” (PLoS ONE, 2014).
Where “and” joins values, the source holds several entries; their conditions need not be identical. Equal values may be shown once.

Experiments:
[1] = pH titration of fluorescence/absorbance (pKa); type: physicochemical; settings: Fmax/A(λexc) versus pH, sigmoidal fit; PBS titrated with HNO3 and NaOH over pH 4.0-8.5; 0.8 µM; λexc = 408 nm
Experimental: pH measurements. The pH titration of PBS was performed with HNO3 and NaOH over pH 4.0-8.5. The final concentration of Ce6 and Ce6-conjugates in solution was 0.8 µM. The pH was measured by Sentron pH meter (Sentron Europe, NL) and the absorption and fluorescence emission (λexc = 408 nm) profiles of solutions were recorded. The inflection point of titration curves (pKa) were evaluated as reported. Briefly, the results of fluorescence titrations are presented in terms of a plot of fluorescence intensity as a function of pH with the constant concentration of the compound used throughout measurements. However, variations of fluorescence intensity are due to at least two contributions: the changes of molar extinction coefficient (differed absorbed intensity) and the changes of quantum efficiency with pH. To eliminate the influence of the molar extinction coefficient variations, the ratio of fluorescence intensity at the peak position to the absorbance at the excitation wavelength was plotted, followed by sigmoidal function fitting procedure (Figures S2-S4).

[2] = 1-Octanol/PBS partition coefficient; type: physicochemical; settings: 1-octanol / PBS pH = 7.4; Poct/buffer = Coct/Cbuffer; stock 0.6 mM in DMSO; duplicates
Experimental: Partition coefficient. Stock solutions of Ce6 and conjugates (0.6 mM) were prepared in DMSO. Lipophilicity was characterized by their partition coefficient Poct/buffer = Coct/Cbuffer between two solvents 1-octanol (oct) and PBS, pH = 7.4 (buffer). Measurements were carried out in duplicates as described by Cunderlikova et al.

[3] = PBS pH = 7.4; used as reference; cited from earlier work
[4] = system: K562 sst2+ cells; experiment: Cellular uptake in K562 sst2+ and WT cells; type: cell-based, human; settings: 1 µM
Experimental: Stock solutions of Ce6 and Ce6-conjugates (1 mM) were dissolved in 80% DMSO and were stored in the dark at −20°C. Before experiments, the solutions were diluted to a concentration of 0.1 mM in 20% DMSO. K562 sst2+ or WT (3×10^5) in 1 ml RPMI 1640 serum-free or supplemented with 5% FCS were incubated with Ce6 or with conjugate (1 µM) for 15 min to 24 h in the dark at 37°C. After incubation, the cells were centrifuged, cell pellet dissolved in 2% SDS and fluorescence emission spectra (λexc = 405 nm) recorded. Photosensitizer concentrations were calculated in triplicate according to a calibration curve generated by mixing a known concentration of photosensitizer with a lysated control samples.

[5] = system: K562 sst2+ cells; experiment: In vitro PDT phototoxicity, K562 sst2+ cells; type: cell-based, human
Experimental: In vitro PDT experiments were performed to determine the phototoxicity of free Ce6 and conjugates. K562 sst2+ and WT cells were seeded in L-polylysine-coated (10 µg/ml) 96-well (8×10^3/well) and 24-well (4×10^4/well) and incubated overnight in 5% CO2 at 37°C. […] After incubation, cells were washed. Fresh serum-free medium was added, and cells were illuminated with 652 nm to a dose from 0.5 to 5 J cm^−2 at 5 mW.cm^−2. Thereafter, serum-containing medium was added and cells were allowed to grow for an additional 3 days in 5% FCS medium. Toxicity was determined by: measurement of DNA contents using the bisbenzimide fluorescent dye (Hoechst 33258, Boehring Diagnostics, CA, USA) and measurement of mitochondrial dehydrogenase cleavage of WST-1 reagent (Roche Diagnostics, Germany), [39]. Experiments were done in triplicates.

[6] = Photobleaching under 652 nm irradiation in PBS; type: physicochemical
Experimental: Photobleaching measurements. The loss of photosensitizer absorbance and fluorescence during irradiation was used to monitor photobleaching. Solutions of Ce6 and Ce6-conjugates were prepared in PBS pH = 7.4. The concentration of photosensitizers were adjusted so that all absorb the same number of photons at irradiated region (O.D. = 0.014 at the λirr. = 652 nm (Biolitec pharma, UK). Data was acquired in quartz cuvettes in aerobic conditions using stirring under uniform, measured irradiation at 5 mWcm^-2. At intervals, the cuvette was removed from magnetic stirrer and absorption and fluorescence emission spectrum (λexc = 405 nm) acquired. The initial absorption bleaching rate constants (kblA) for Ce6 and conjugates were evaluated as reported.

[7] = system: sst2+ AR42J acinar pancreas tumors; experiment: Intra-vital fluorescence pharmacokinetics in AR42J tumors in rat skin-fold chambers; type: in vivo; settings: i.v. tail vein, conjugate 1 0.67 mg/kg, Ce6 0.2 mg/kg, rat skin-fold chamber
Experimental: Intra-vital confocal fluorescence imaging was performed in single sided rat skin-fold chambers transplanted with sst2 ^+ AR42J acinar pancreas tumors as described previously. The study was approved by the animal experimental committee of the Erasmus MC. Chambers were prepared in 12 animals divided into three groups. […] The first group of animals received Ce6 at a dose of 0.2 mg/kg, the second group received conjugate 1 at a dose of 0.67 mg/kg such that the same number of Ce6 molecules were administered to each animal; (equivalent Ce6 concentration of 2.011×10^−4 M).
Animals were anesthetized using isoflurane/O2 and autofluorescence images were recorded. Drug was administered intravenously into the tail vein. Fluorescence images were acquired 5 and 20 minutes after conjugate administration after which the animal was allowed to recover. Subsequent fluorescence images were acquired under anesthesia at 1, 4, 24, 72 and 96 hrs. […] Confocal fluorescence imaging (LSM 510 Meta (Zeiss, Germany)) was performed using a 40× objective. The distribution of Ce6 fluorescence was mapped under 514 nm laser excitation in the lambda mode (539–753 nm). […] Spectra acquired from individual pixels were analyzed as a linear combination of basis spectra and fitted using a singular value decomposition algorithm. The fluorescence of Ce6 and conjugate 1 was determined in ROIs. […]

[8] = PBS pH = 7.4; used as reference; cited from earlier work; remark: listed apart in the source
Source text: The fluorescence quantum yield of Ce6 in neutral pH was similar to conjugates 1 (ΦF = 0.18 for Ce6 and ΦF = 0.20 for 1).

[9] = Steady-state absorption and fluorescence in PBS; type: physicochemical; settings: PBS pH = 7.4
Experimental: Steady-State Fluorescence and Absorption Measurements. The fluorescence quantum yields (ΦF) of Ce6 and conjugates in PBS pH 7.4 were determined by a relative method. Ce6 in the buffer at pH 7.4 with the quantum yield of 0.18 [24,32,33] was used as a reference.
The absorption profile of Ce6 and conjugate in PBS of concentration (0.06–1µM) was recorded in Shimadzu spectrophotometer (UV-2101 PC, Duisburg, Germany).
The fluorescence emission of photosensitizers was recorded in a Perkin-Elmer spectrofluorimeter (LS 50B, Massachussetts, USA). Light at 408 nm was used for excitation. The concentration range of compounds matched to the O.D. up to 0.1.

- pKa, inflection point of pH titration curve [1]: 6.71 and 6.71±0.0947
- LogP, logarithm of partition coefficient [2]: 0.005±0.05
- kblA, rate constant of initial absorption bleaching ([6]; PBS pH = 7.4, 652 nm irradiation at 5 mWcm^-2, O.D. = 0.014 at 652 nm, aerobic, stirring): 25.69 x 10^−2 J^−1 cm^2
- photostability ([6]; PBS, 652 nm irradiation, fluorescence bleaching): low photostability
- full width at half maximum of the Q(0,0) absorption band [9]: 21 nm
- full width at half maximum of the Soret absorption band [9]: 27 nm
- maximum of fluorescence band [9]: 661 nm
- maximum of the Q(0,0) absorption band [9]: 655 nm
- maximum of the Soret absorption band [9]: 402 nm
Compound: C=Cc1c(C)c2cc3nc(c(CC(=O)O)c4[nH]c(cc5nc(cc1[nH]2)C(C)=C5CC)c(C)c4C(=O)O)[C@@H](CCC(=O)O)[C@@H]3C [Ce6, Chlorin e6]
- ΦΔ, singlet oxygen quantum yield (reference value) [3]: 0.64 and 0.64±0.08
- uptake in sst2+ cells compared to WT cells (factor) ([4]; serum-free and 5% FCS medium, fluorescence of lysate, λexc = 405 nm): same result as for conjugate 2
- concentration taken up by sst2+ cells ([4]; 4 h incubation, K562 sst2+): 90 nM
- cell survival after PDT compared to control cells ([5]; K562 sst2+, 1 µM, 4 h incubation, serum-free, 652 nm, 5 J.cm^−2, read after 3 days): almost complete inhibition of cell viability
- light dose from which phototoxicity was seen ([5]; K562 sst2+, 1 µM, 4 h incubation, 652 nm): 0.5 J.cm^−2
- effect on cell growth of photosensitizer alone in the absence of light ([5]; dark toxicity, K562 cells): no effect on cell growth
- time of fluorescence peak in tumor tissue [7]: gradually increased over the first 3 days
- ΦF, fluorescence quantum yield (reference value) [8]: 0.18
